Measurements from the supplement of paper PMC11208160.

Experiment: recombinant UMI read abundance after kanamycin selection (control-corrected) (log10(CPM+1)); higher = more efficient recombination; extreme values may be limits of the assay; sequences stand for … in AGTGCAGAGAAAATCGGCCAGTTTTCTCTGCCTGCAGTCCGCATGCCGTGGGACCCCTTGGGTTCTAACCTGTTGCCTAGATTTATGCAGCGGACTGCCTTTCTCCCAAAGTGATAAACCGG…AGGTTGGTTTCACT; site = the 11-nt donor
Procedure, shortened: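 In Escherichia coli, a pool of donor and donor-binding-loop pairs, each with a 12-nt UMI, was tested for the IS621 bridge recombinase. Plating was on IPTG (0.07 mM) plus kanamycin, or without selection, in two replicates. Recombinant UMIs were amplified by PCR across the donor–target junction and sequenced, and counts were reported as log10(CPM+1) after averaging and control-derived scaling.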
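Further: IS621 bridge recombinase in Escherichia coli cells against a fixed T5 target plasmid.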

GTCGAATCATGGACCGGTTTTCCCGGTAATCCGTATTTGTT (site GTCGAATCTAA)
recombinant UMI read abundance (log10): 2.52

GTCGAGGCATGGACCGGTTTTCCCGGTAATCCGTATTTGTG (site GTAGAGGCTCA)
recombinant UMI read abundance (log10): 0.867

GTCGAGGCATGGACCGGTTTTCCCGGTAATCCGTATTTGTG (site GTCGAGGCTCA)
recombinant UMI read abundance (log10): 0.765

GTCGAGGCATGGACCGGTTTTCCCGGTAATCCGTATTTGTG (site GTGGAGGCTCA)
recombinant UMI read abundance (log10): 0.0124

GTCGAGGCATGGACCGGTTTTCCCGGTAATCCGTATTTGTG (site GTTGAGGCTCA)
recombinant UMI read abundance (log10): 0.0142

GTCGCATCATGGACCGGTTTTCCCGGTAATCCGTATTTGGA (site GTCGCATCTTC)
recombinant UMI read abundance (log10): 2.05

GTCGCTCCATGGACCGGTTTTCCCGGTAATCCGTATTTGGG (site GTCGCTCCTCC)
recombinant UMI read abundance (log10): 0.0316

GTCGGTCCATGGACCGGTTTTCCCGGTAATCCGTATTTGAA (site GTCGGTCCTTT)
recombinant UMI read abundance (log10): 0.0112

GTCTGAGCATGGACCGGTTTTCCCGGTAATCCGTATTTGGA (site GTCTGAGCTTC)
recombinant UMI read abundance (log10): 0.754

GTGAAGCCATGGACCGGTTTTCCCGGTAATCCGTATTTGGG (site GAGAAGCCTCC)
recombinant UMI read abundance (log10): 0.0044

GTGAAGCCATGGACCGGTTTTCCCGGTAATCCGTATTTGGG (site GCGAAGCCTCC)
recombinant UMI read abundance (log10): 0.0113

GTGAAGCCATGGACCGGTTTTCCCGGTAATCCGTATTTGGG (site GGGAAGCCTCC)
recombinant UMI read abundance (log10): 0.00817

GTGAAGCCATGGACCGGTTTTCCCGGTAATCCGTATTTGGG (site GTGAAGCCTCC)
recombinant UMI read abundance (log10): 0.00505

GTGAAGGCATGGACCGGTTTTCCCGGTAATCCGTATTTGTG (site GTGAAGGCTCA)
recombinant UMI read abundance (log10): 2.12

GTGAAGGCATGGACCGGTTTTCCCGGTAATCCGTATTTGTG (site GTGCAGGCTCA)
recombinant UMI read abundance (log10): 0.498

GTGAAGGCATGGACCGGTTTTCCCGGTAATCCGTATTTGTG (site GTGGAGGCTCA)
recombinant UMI read abundance (log10): 1.02

GTGAAGGCATGGACCGGTTTTCCCGGTAATCCGTATTTGTG (site GTGTAGGCTCA)
recombinant UMI read abundance (log10): 0.977

GTGAATGCATGGACCGGTTTTCCCGGTAATCCGTATTTGGT (site GTGAATGCTAC)
recombinant UMI read abundance (log10): 2.73

GTGAATGCATGGACCGGTTTTCCCGGTAATCCGTATTTGGT (site GTGCATGCTAC)
recombinant UMI read abundance (log10): 0.318

GTGAATGCATGGACCGGTTTTCCCGGTAATCCGTATTTGGT (site GTGGATGCTAC)
recombinant UMI read abundance (log10): 1.94

GTGAATGCATGGACCGGTTTTCCCGGTAATCCGTATTTGGT (site GTGTATGCTAC)
recombinant UMI read abundance (log10): 1.4

GTGACGCCATGGACCGGTTTTCCCGGTAATCCGTATTTGTG (site GTGACGCCTCA)
recombinant UMI read abundance (log10): 0

GTGAGTACATGGACCGGTTTTCCCGGTAATCCGTATTTGAG (site GTGAGTACTCT)
recombinant UMI read abundance (log10): 1.75

GTGAGTGCATGGACCGGTTTTCCCGGTAATCCGTATTTGAG (site GTGAGTGCTCT)
recombinant UMI read abundance (log10): 2.12

GTGATAACATGGACCGGTTTTCCCGGTAATCCGTATTTGGC (site GTGATAACTGC)
recombinant UMI read abundance (log10): 2.59

GTGATGACATGGACCGGTTTTCCCGGTAATCCGTATTTGGC (site GTGATGACTGC)
recombinant UMI read abundance (log10): 2.09

GTGATGCCATGGACCGGTTTTCCCGGTAATCCGTATTTGAT (site GTGATGCCTAT)
recombinant UMI read abundance (log10): 1.41

GTGATGTCATGGACCGGTTTTCCCGGTAATCCGTATTTGGA (site GTGATGTCTTC)
recombinant UMI read abundance (log10): 2.57

GTGCACGCATGGACCGGTTTTCCCGGTAATCCGTATTTGGT (site GTGCAAGCTAC)
recombinant UMI read abundance (log10): 0.553

GTGCACGCATGGACCGGTTTTCCCGGTAATCCGTATTTGGT (site GTGCACGCTAC)
recombinant UMI read abundance (log10): 1.75

GTGCACGCATGGACCGGTTTTCCCGGTAATCCGTATTTGGT (site GTGCAGGCTAC)
recombinant UMI read abundance (log10): 0.00611

GTGCACGCATGGACCGGTTTTCCCGGTAATCCGTATTTGGT (site GTGCATGCTAC)
recombinant UMI read abundance (log10): 0.0143

GTGCGAGCATGGACCGGTTTTCCCGGTAATCCGTATTTGCA (site GTACGAGCTTG)
recombinant UMI read abundance (log10): 2.68

GTGCGAGCATGGACCGGTTTTCCCGGTAATCCGTATTTGCA (site GTCCGAGCTTG)
recombinant UMI read abundance (log10): 0.724

GTGCGAGCATGGACCGGTTTTCCCGGTAATCCGTATTTGCA (site GTGCGAGCTTG)
recombinant UMI read abundance (log10): 2.81

GTGCGAGCATGGACCGGTTTTCCCGGTAATCCGTATTTGCA (site GTTCGAGCTTG)
recombinant UMI read abundance (log10): 1.48

GTGCGTACATGGACCGGTTTTCCCGGTAATCCGTATTTGCT (site GTGCGTACTAG)
recombinant UMI read abundance (log10): 2.23

GTGCGTCCATGGACCGGTTTTCCCGGTAATCCGTATTTGTG (site GTGCGTCCTCA)
recombinant UMI read abundance (log10): 0.0594

GTGCTACCATGGACCGGTTTTCCCGGTAATCCGTATTTGGG (site GTGCTACCTCC)
recombinant UMI read abundance (log10): 0.0107

GTGGAAGCATGGACCGGTTTTCCCGGTAATCCGTATTTGAA (site GTGGAAGCTTT)
recombinant UMI read abundance (log10): 2.55

GTGGAGTCATGGACCGGTTTTCCCGGTAATCCGTATTTGTG (site GTGGAGACTCA)
recombinant UMI read abundance (log10): 1.34

GTGGAGTCATGGACCGGTTTTCCCGGTAATCCGTATTTGTG (site GTGGAGCCTCA)
recombinant UMI read abundance (log10): 0.572

GTGGAGTCATGGACCGGTTTTCCCGGTAATCCGTATTTGTG (site GTGGAGGCTCA)
recombinant UMI read abundance (log10): 0.00513

GTGGAGTCATGGACCGGTTTTCCCGGTAATCCGTATTTGTG (site GTGGAGTCTCA)
recombinant UMI read abundance (log10): 2.76

GTGGCAACATGGACCGGTTTTCCCGGTAATCCGTATTTGCG (site GTGGCAACTCG)
recombinant UMI read abundance (log10): 1.03

GTGGCAACATGGACCGGTTTTCCCGGTAATCCGTATTTGTA (site GTGGCAACTTA)
recombinant UMI read abundance (log10): 0.85

GTGGGCCCATGGACCGGTTTTCCCGGTAATCCGTATTTGTC (site GTGGGCCCTGA)
recombinant UMI read abundance (log10): 0.429

GTGGGCGCATGGACCGGTTTTCCCGGTAATCCGTATTTGGG (site GTGGGCGCTCC)
recombinant UMI read abundance (log10): 0.22

GTGTACCCATGGACCGGTTTTCCCGGTAATCCGTATTTGGC (site GTGTACCCTGC)
recombinant UMI read abundance (log10): 0.705

GTGTACGCATGGACCGGTTTTCCCGGTAATCCGTATTTGTC (site GTGTACGCTGA)
recombinant UMI read abundance (log10): 2.81

GTGTTGACATGGACCGGTTTTCCCGGTAATCCGTATTTGTG (site GTGTTGACTCA)
recombinant UMI read abundance (log10): 1.33

GTTAAAGCATGGACCGGTTTTCCCGGTAATCCGTATTTGTA (site GTTAAAGCTTA)
recombinant UMI read abundance (log10): 2.59

GTTAACGCATGGACCGGTTTTCCCGGTAATCCGTATTTGGA (site GTTAACGCTTC)
recombinant UMI read abundance (log10): 0.944

GTTACAACATGGACCGGTTTTCCCGGTAATCCGTATTTGAT (site GTTACAACTAT)
recombinant UMI read abundance (log10): 0.492

GTTACGTCATGGACCGGTTTTCCCGGTAATCCGTATTTGTT (site GATACGTCTAA)
recombinant UMI read abundance (log10): 0.0159

GTTACGTCATGGACCGGTTTTCCCGGTAATCCGTATTTGTT (site GCTACGTCTAA)
recombinant UMI read abundance (log10): 0.00335

GTTACGTCATGGACCGGTTTTCCCGGTAATCCGTATTTGTT (site GGTACGTCTAA)
recombinant UMI read abundance (log10): 0.00806
